Drawing on patent US12344597B2, “Alkoxy-substituted pyridinyl derivatives as LPA1 receptor antagonists and their use in the treatment of fibrosis” (IDORSIA PHARMACEUTICALS LTD, priority 2018, dated 2025), this text covers IC50 for 29 molecules.

The IC50 is the point on the concentration scale where inhibition reaches its midpoint. Lower therefore signals greater potency in that assay.

human LPA1 receptor, sequence (Q92633 whole entry, the tested form may be a part): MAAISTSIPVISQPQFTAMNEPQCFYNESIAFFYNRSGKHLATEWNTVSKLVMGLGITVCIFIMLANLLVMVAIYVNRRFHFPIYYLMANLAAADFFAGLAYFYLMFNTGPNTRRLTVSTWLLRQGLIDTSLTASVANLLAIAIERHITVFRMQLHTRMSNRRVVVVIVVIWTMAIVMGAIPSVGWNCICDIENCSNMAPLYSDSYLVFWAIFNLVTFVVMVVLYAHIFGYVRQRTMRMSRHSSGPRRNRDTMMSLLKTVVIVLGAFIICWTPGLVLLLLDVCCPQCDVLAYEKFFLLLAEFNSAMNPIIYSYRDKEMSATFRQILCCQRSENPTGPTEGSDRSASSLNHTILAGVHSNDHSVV

This assay concerns the target human LPA1 receptor (Homo sapiens (Human), UniProt Q92633). The experiment in a line: Beta-arrestin recruitment assay to determine IC50 values for human LPAR1. The note with it: antagonist mode, Tango EDG2-bla U2OS cells, LPA 18:1 500 nM final. Type of assay: cell-based. The text has this: Beta-Arrestin Recruitment Assay to Determine IC50 Values for Human LPAR1
The Tango™ EDG2-bla U2OS cells are obtained from Invitrogen. These cells contain the human LPA1 receptor cDNA linked to a TEV protease site and a Gal4-VP16 transcription factor integrated into the Tango™ GPCR-bla U2OS parental cell line. This parental cell line stably expresses a beta-arrestin/TEV protease fusion protein and the beta-lactamase (bla) reporter gene under the control of a UAS response element. Upon LPA (agonist) binding, LPA1 receptor gets activated, leading to arrestin-protease recruitment and proteolytic release of the transcription factor: The transcription factor then regulates transcription of a beta-lactamase reporter construct, which is measured upon addition of the live-cell substrate.
10′000 Tango™ EDG2-bla U2OS cells are seeded in a 384-well black with clear bottom plate in 30 μl Freestyle 293 Expression Medium (Invitrogen) and incubated for 20 h at 37° C., 5% CO2. […] IC50 is the concentration of antagonist inhibiting 50% of the maximal response.
Background: Recruitment of arrestin is a read-out of receptor activation apart from second messengers.
For the molecule `CC(C)c1ccccc1C1(C(=O)Nc2cccnc2OC(F)F)CN(C(=O)CC(C)(C)C(=O)O)C1` [Ex 12-84, 4-(3-((2-(difluoromethoxy)pyridin-3-yl)carbamoyl)-3-(2-isopropylphenyl)azetidin-1-yl)-2,2-dimethyl-4-oxobutanoic acid], the IC50 was found to be 0.051 µM.

Molecule `Cc1ccc(NC(=O)C2(c3ccccc3C(C)C)CN(Cc3nnn[nH]3)C2)c(OC(F)F)n1` [Ex 11-8, 1-((1H-tetrazol-5-yl)methyl)-N-(2-(difluoromethoxy)-6-methylpyridin-3-yl)-3-(2-isopropylphenyl)azetidine-3-carboxamide] had an IC50 of 0.055 µM.

Consider `Cc1ccc(NC(=O)C2(c3ccccc3C(C)C)CN(C(=O)[C@@H]3C[C@@H]3C(=O)O)C2)c(OC(F)F)n1` [Ex 12-95, (1S,2R)-2-(3-((2-(difluoromethoxy)-6-methylpyridin-3-yl)carbamoyl)-3-(2-isopropylphenyl)azetidine-1-carbonyl)cyclopropane-1-carboxylic acid], for which the half-inhibitory concentration (IC50) was found to be 0.014 µM.

`Cc1ccc(NC(=O)C2(c3ccccc3C(C)C)CNC2)c(OC(C)C)n1` [Ex 2, N-(2-isopropoxy-6-methylpyridin-3-yl)-3-(2-isopropylphenyl)azetidine-3-carboxamide] had an IC50 of 0.32 µM.

`Cc1ccc(NC(=O)C2(c3c(F)cccc3C(C)C)CNC2)c(OC(F)F)n1` [Ex 36, N-(2-(difluoromethoxy)-6-methylpyridin-3-yl)-3-(2-fluoro-6-isopropylphenyl)azetidine-3-carboxamide] had an IC50 of 0.008 µM.

The molecule `CCOc1nc(C)ccc1NC(=O)C1(c2ccccc2C(C)C)CN(S(N)(=O)=O)C1` [Ex 15-17, N-(2-ethoxy-6-methylpyridin-3-yl)-3-(2-isopropylphenyl)-1-sulfamoylazetidine-3-carboxamide] had an IC50 of 0.031 µM.

Turning to `Cc1ccc(NC(=O)C2(c3ccccc3C(C)C)CN(c3noc(O)n3)C2)c(OC(F)F)n1` [Ex 21, N-(2-(difluoromethoxy)-6-methylpyridin-3-yl)-1-(5-hydroxy-1,2,4-oxadiazol-3-yl)-3-(2-isopropylphenyl)azetidine-3-carboxamide], the IC50 came to 0.012 µM.

`Cc1ccc(NC(=O)C2(c3ccccc3C(C)C)CN(CCCC3(C(=O)O)CC3)C2)c(OC(F)F)n1` [Ex 11-71, 1-(3-(3-((2-(difluoromethoxy)-6-methylpyridin-3-yl)carbamoyl)-3-(2-isopropylphenyl)azetidin-1-yl)propyl)cyclopropane-1-carboxylic acid] displayed an IC50 of 0.007 µM.

Turning to `Cc1ccc(NC(=O)C2(c3ccccc3C(C)C)CN(CCO)C2)c(OC(F)F)n1` [Ex 11-2, N-(2-(difluoromethoxy)-6-methylpyridin-3-yl)-1-(2-hydroxyethyl)-3-(2-isopropylphenyl)azetidine-3-carboxamide], it took 0.005 µM to reach half-maximal inhibition (IC50).

`CC(C)c1ccccc1C1(C(=O)Nc2cc(F)cnc2OC(F)F)CN(S(N)(=O)=O)C1` [Ex 15-15, N-(2-(difluoromethoxy)-5-fluoropyridin-3-yl)-3-(2-isopropylphenyl)-1-sulfamoylazetidine-3-carboxamide] gave an IC50 of 0.01 µM.

`COc1ccc(C(C)C)c(C2(C(=O)Nc3ccc(C)nc3OC(F)F)CNC2)c1` [Ex 38, N-(2-(difluoromethoxy)-6-methylpyridin-3-yl)-3-(2-isopropyl-5-methoxyphenyl)azetidine-3-carboxamide]: the IC50 turned out to be 0.287 µM.

In turn, `CC(C)c1cccnc1C1(C(=O)Nc2ncc(Cl)cc2OC(F)F)CNC1` [Ex 77, N-(5-chloro-3-(difluoromethoxy)pyridin-2-yl)-3-(3-isopropylpyridin-2-yl)azetidine-3-carboxamide] had an IC50 of 1.03 µM.

In turn, `Cc1ccc(NC(=O)C2(c3ccccc3C(C)C)CN(CC3(C(=O)O)COC3)C2)c(OC(F)F)n1` [Ex 11-91, 3-((3-((2-(difluoromethoxy)-6-methylpyridin-3-yl)carbamoyl)-3-(2-isopropylphenyl)azetidin-1-yl)methyl)oxetane-3-carboxylic acid] returned an IC50 of 0.046 µM.

Molecule `Cc1ccc(NC(=O)C2(c3ccccc3C(C)C)CN(C(=O)CNC[C@H](C)O)C2)c(OC(F)F)n1` [Ex 12-56, (S)-N-(2-(difluoromethoxy)-6-methylpyridin-3-yl)-1-((S)-(2-hydroxypropyl)glycyl)-3-(2-isopropylphenyl)azetidine-3-carboxamide] gave an IC50 of 0.007 µM.

Consider `Cc1ccc(NC(=O)C2(c3ccccc3C(C)C)CN(c3ncc(F)cn3)C2)c(OC(F)F)n1` [Ex 18-33, N-(2-(difluoromethoxy)-6-methylpyridin-3-yl)-1-(5-fluoropyrimidin-2-yl)-3-(2-isopropylphenyl)azetidine-3-carboxamide], for which the IC50 was 0.003 µM.

With `Cc1ccc(NC(=O)C2(c3ccccc3C(C)C)CN(S(=O)(=O)NCCO)C2)c(OC(F)F)n1` [Ex 15-3, N-(2-(difluoromethoxy)-6-methylpyridin-3-yl)-1-(N-(2-hydroxyethyl)sulfamoyl)-3-(2-isopropylphenyl)azetidine-3-carboxamide], the IC50 turned out to be 0.011 µM.

`Cc1ccc(NC(=O)C2(c3ccccc3C(C)C)CN(C(=O)OC3(C(=O)O)CC3)C2)c(OC(F)F)n1` [Ex 14-8, 1-((3-((2-(difluoromethoxy)-6-methylpyridin-3-yl)carbamoyl)-3-(2-isopropylphenyl)azetidine-1-carbonyl)oxy)cyclopropane-1-carboxylic acid] came in with an IC50 of 0.014 µM.

Molecule `Cc1ccc(NC(=O)C2(c3ccccc3C(C)C)CN(C(=O)[C@@H](N)CO)C2)c(OC(F)F)n1` [Ex 12-40, 1-(L-seryl)-N-(2-(difluoromethoxy)-6-methylpyridin-3-yl)-3-(2-isopropylphenyl)azetidine-3-carboxamide] gave an IC50 of 0.06 µM.

For the molecule `CCOC(=O)c1c[nH]nc1CN1CC(C(=O)Nc2ccc(C)nc2OC(F)F)(c2ccccc2C(C)C)C1` [Ex 11-39, ethyl 3-((3-((2-(difluoromethoxy)-6-methylpyridin-3-yl)carbamoyl)-3-(2-isopropylphenyl)azetidin-1-yl)methyl)-1H-pyrazole-4-carboxylate], the midpoint of inhibition, the IC50, lay at 0.01 µM.

`Cc1ccc(NC(=O)C2(c3ccccc3C(C)C)CN(C(=O)N3CCNCC3)C2)c(OC(F)F)n1` [Ex 17-25, N-(2-(difluoromethoxy)-6-methylpyridin-3-yl)-3-(2-isopropylphenyl)-1-(piperazine-1-carbonyl)azetidine-3-carboxamide] returned an IC50 of 0.27 µM.

In turn, `Cc1ccc(NC(=O)C2(c3ccccc3C(C)C)CN(S(=O)(=O)NC3CC3)C2)c(OC(F)F)n1` [Ex 15-13, 1-(N-cyclopropylsulfamoyl)-N-(2-(difluoromethoxy)-6-methylpyridin-3-yl)-3-(2-isopropylphenyl)azetidine-3-carboxamide] showed an IC50 of 0.011 µM.

`Cc1ccc(NC(=O)C2(c3ccccc3C(C)C)CN(C(=O)O[C@@H](C)C(=O)O)C2)c(OC(F)F)n1` [Ex 14-4, (S)-2-((3-((2-(difluoromethoxy)-6-methylpyridin-3-yl)carbamoyl)-3-(2-isopropylphenyl)azetidine-1-carbonyl)oxy)propanoic acid]: it took 0.016 µM to reach half-maximal inhibition (IC50).

Molecule `COC(=O)c1ccc(CN2CC(C(=O)Nc3ccc(C)nc3OC(F)F)(c3ccccc3C(C)C)C2)[nH]1` [Ex 11-43, methyl 5-((3-((2-(difluoromethoxy)-6-methylpyridin-3-yl)carbamoyl)-3-(2-isopropylphenyl)azetidin-1-yl)methyl)-1H-pyrrole-2-carboxylate] displayed an IC50 of 0.31 µM.

`COc1cc(Cl)cnc1NC(=O)C1(c2ccccc2C(C)C)CN(C(=O)CC(C)(C)C(=O)O)C1` [Ex 79-4, 4-(3-((5-chloro-3-methoxypyridin-2-yl)carbamoyl)-3-(2-isopropylphenyl)azetidin-1-yl)-2,2-dimethyl-4-oxobutanoic acid] gave an IC50 of 0.123 µM.

Molecule `C=C(C)C(=O)OCCNC(=O)N1CCC(C(=O)Nc2ccc(C)nc2OC(F)F)(c2ccccc2C(C)C)CC1` [Ex 17-21, 2-(4-((2-(difluoromethoxy)-6-methylpyridin-3-yl)carbamoyl)-4-(2-isopropylphenyl)piperidine-1-carboxamido)ethyl methacrylate] had an IC50 of 0.005 µM.

`CCCc1ccccc1C1(C(=O)Nc2ccc(C)nc2OC(F)F)CN(C(=O)CC(C)(C)C(=O)O)C1` [Ex 31-7, 4-(3-((2-(difluoromethoxy)-6-methylpyridin-3-yl)carbamoyl)-3-(2-propylphenyl)azetidin-1-yl)-2,2-dimethyl-4-oxobutanoic acid] yielded an IC50 of 0.008 µM.

`NS(=O)(=O)N1CC(C(=O)Nc2ncc(Cl)cc2OC(F)F)(c2ccccc2C2CCCC2)C1` [Example 81-6, N-(5-chloro-3-(difluoromethoxy)pyridin-2-yl)-3-(2-cyclopentylphenyl)-1-sulfamoylazetidine-3-carboxamide] showed an IC50 of 0.022 µM.

Consider `Cc1ccc(NC(=O)C2(c3nccnc3C(C)C)CNC2)c(OC(F)F)n1` [Ex 68, N-(2-(difluoromethoxy)-6-methylpyridin-3-yl)-3-(3-isopropylpyrazin-2-yl)azetidine-3-carboxamide], for which the IC50 came out at 7.62 µM.

For the molecule `Cc1ccc(NC(=O)C2(c3ccccc3C(C)C)CN(C(=O)C[C@H](C)C(=O)O)C2)c(OC(F)F)n1` [Ex 12-79, (S)-4-(3-((2-(difluoromethoxy)-6-methylpyridin-3-yl)carbamoyl)-3-(2-isopropylphenyl)azetidin-1-yl)-2-methyl-4-oxobutanoic acid], the IC50 is 0.015 µM.
